This is an account of results in PMC4777574, “Pharmacological Inhibition of Monoacylglycerol O-Acyltransferase 2 Improves Hyperlipidemia, Obesity, and Diabetes by Change in Intestinal Fat Utilization” (PLoS ONE, 2016).

Molecules are shown by their SMILES.

Assay [1] addresses T1, Monoacylglycerol O-acyltransferase 2 (MGAT2) (Mus musculus, UniProt Q80W94).
T1 construct: gene Mogat2
Briefly: MGAT2 enzyme inhibition IC50 (assay details not given); anorectic effect lost in MGAT2 KO mice. The assay is classed as biochemical.

Assay [2] deals with T2, Monoacylglycerol O-acyltransferase 2 (MGAT2) (Homo sapiens, UniProt Q3SYC2).
T2 construct: gene MOGAT2
Briefly: MGAT2 enzyme inhibition IC50 (assay details not given). It counts as biochemical.

T1 sequence (Q80W94 whole entry): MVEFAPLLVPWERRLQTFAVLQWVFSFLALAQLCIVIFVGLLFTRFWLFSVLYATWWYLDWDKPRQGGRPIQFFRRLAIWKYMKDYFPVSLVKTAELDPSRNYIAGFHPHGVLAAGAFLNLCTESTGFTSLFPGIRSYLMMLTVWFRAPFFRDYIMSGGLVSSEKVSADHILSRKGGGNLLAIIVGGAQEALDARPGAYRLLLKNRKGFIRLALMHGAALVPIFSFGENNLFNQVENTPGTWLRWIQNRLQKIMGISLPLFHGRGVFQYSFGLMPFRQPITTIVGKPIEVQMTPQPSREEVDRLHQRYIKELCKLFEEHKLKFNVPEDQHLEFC
T2 sequence (Q3SYC2 whole entry): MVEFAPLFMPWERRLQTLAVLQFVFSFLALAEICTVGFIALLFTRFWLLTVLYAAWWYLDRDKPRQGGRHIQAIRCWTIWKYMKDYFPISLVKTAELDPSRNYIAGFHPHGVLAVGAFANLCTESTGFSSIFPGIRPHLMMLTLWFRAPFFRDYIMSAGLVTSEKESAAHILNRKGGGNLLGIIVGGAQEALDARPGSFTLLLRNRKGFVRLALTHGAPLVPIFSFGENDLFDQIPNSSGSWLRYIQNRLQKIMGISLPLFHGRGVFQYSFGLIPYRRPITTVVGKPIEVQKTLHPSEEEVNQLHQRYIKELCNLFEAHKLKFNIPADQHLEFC

As to `Cn1nc(C(F)(F)F)cc1-c1cnc(N2CCc3cc(S(=O)(=O)Nc4c(F)cc(Cl)cc4F)cc(N4CCCC4=O)c32)nc1` [compA, compound A], the figures for the half-inhibitory concentration (IC50) in assay [1] and in assay [2] were 2.4 nM and 7.8 nM, respectively.
